Source: ChEMBL document CHEMBL3885881, “DrugMatrix”

Organism: Rattus norvegicus
Test: DrugMatrix - Regimen: Daily Repeat
Type: toxicity, organism-based, Sprague-Dawley
Design: regimen Daily Repeat, gender Male, age 6-8 weeks
Conditions: in vivo, po, route oral GAVAGE, vehicle 100 % WATER; for ABSOLUTE BASOPHIL / ABSOLUTE EOSINOPHIL / ABSOLUTE LYMPHOCYTE / ABSOLUTE MONOCYTE / ABSOLUTE SEGMENTED NEUTROPHIL / BASOPHIL / EOSINOPHIL / ERYTHROCYTE COUNT / HEMATOCRIT / LEUKOCYTE COUNT / LYMPHOCYTE / MEAN CORPUSCULAR HEMOGLOBIN / MEAN CORPUSCULAR HEMOGLOBIN CONCENTRATION / MEAN CORPUSCULAR VOLUME / MONOCYTE / NEUTROPHIL / NUCLEATED RED BLOOD CELLS / PLATELET COUNT: tissue Blood; for ALANINE AMINOTRANSFERASE / ALBUMIN / ALKALINE PHOSPHATASE / ASPARTATE AMINOTRANSFERASE / CARBON DIOXIDE / CHLORIDE / CHOLESTEROL / CREATINE PHOSPHOKINASE / CREATININE / LIPASE / POTASSIUM / TOTAL BILIRUBIN / TOTAL PROTEIN / BLOOD UREA NITROGEN: tissue Plasma
[1] = 0 mg/kg, 72 h, dose level Control, time 3 day
[2] = 0 mg/kg, 120 h, dose level Control, time 5 day
[3] = 44 mg/kg, 72 h, dose level Low, time 3 day
[4] = 44 mg/kg, 120 h, dose level Low, time 5 day

Compound: NC(=O)c1ncn([C@@H]2O[C@H](CO)[C@@H](O)[C@H]2O)n1 [RIBAVIRIN]
- ABSOLUTE BASOPHIL [1]: 0 CELLS/uL
- ABSOLUTE EOSINOPHIL [1]: 40 CELLS/uL
- ABSOLUTE LYMPHOCYTE [1]: 13599.5 CELLS/uL
- ABSOLUTE MONOCYTE [1]: 239.33 CELLS/uL
- ABSOLUTE SEGMENTED NEUTROPHIL [1]: 1021.17 CELLS/uL
- BASOPHIL [1]: 0%
- EOSINOPHIL [1]: 0.33%
- ERYTHROCYTE COUNT [1]: 5.71 x10E6/uL
- HEMATOCRIT [1]: 36.35%
- LEUKOCYTE COUNT [1]: 14.9 x10E3/uL
- LYMPHOCYTE [1]: 91%
- MEAN CORPUSCULAR HEMOGLOBIN [1]: 24.62 pg
- MEAN CORPUSCULAR HEMOGLOBIN CONCENTRATION [1]: 38.65 G/DL
- MEAN CORPUSCULAR VOLUME [1]: 63.7 fL
- MONOCYTE [1]: 1.5%
- NEUTROPHIL [1]: 7.17%
- NUCLEATED RED BLOOD CELLS [1]: 0.33 /100WBC
- PLATELET COUNT [1]: 1225.5 x10E3/uL
- ALANINE AMINOTRANSFERASE [1]: 48.5 u/L
- ALBUMIN [1]: 4.18 G/DL
- ALKALINE PHOSPHATASE [1]: 390.83 u/L
- ASPARTATE AMINOTRANSFERASE [1]: 89 u/L
- CARBON DIOXIDE [1]: 24.83 mmol/L
- CHLORIDE [1]: 100.83 MEQ/L
- CHOLESTEROL [1]: 72.5 mg/dL
- CREATINE PHOSPHOKINASE [1]: 503 u/L
- CREATININE [1]: 0.2 mg/dL
- LIPASE [1]: 9.83 u/L
- POTASSIUM [1]: 6.16 MEQ/L
- TOTAL BILIRUBIN [1]: 0.2 mg/dL
- TOTAL PROTEIN [1]: 5.8 G/DL
- ABSOLUTE BASOPHIL [2]: 0 CELLS/uL
- ABSOLUTE EOSINOPHIL [2]: 21 CELLS/uL
- ABSOLUTE LYMPHOCYTE [2]: 14288.5 CELLS/uL
- ABSOLUTE MONOCYTE [2]: 205.33 CELLS/uL
- ABSOLUTE SEGMENTED NEUTROPHIL [2]: 968.5 CELLS/uL
- BASOPHIL [2]: 0%
- EOSINOPHIL [2]: 0.17%
- ERYTHROCYTE COUNT [2]: 5.83 x10E6/uL
- HEMATOCRIT [2]: 36.53%
- LEUKOCYTE COUNT [2]: 15.48 x10E3/uL
- LYMPHOCYTE [2]: 92%
- MEAN CORPUSCULAR HEMOGLOBIN [2]: 24.72 pg
- MEAN CORPUSCULAR HEMOGLOBIN CONCENTRATION [2]: 39.43 G/DL
- MEAN CORPUSCULAR VOLUME [2]: 62.68 fL
- MONOCYTE [2]: 1.33%
- NEUTROPHIL [2]: 6.5%
- NUCLEATED RED BLOOD CELLS [2]: 0.17 /100WBC
- PLATELET COUNT [2]: 1280.5 x10E3/uL
- ALANINE AMINOTRANSFERASE [2]: 50 u/L
- ALBUMIN [2]: 4.28 G/DL
- ALKALINE PHOSPHATASE [2]: 380.17 u/L
- ASPARTATE AMINOTRANSFERASE [2]: 82.67 u/L
- BLOOD UREA NITROGEN [2]: 15.33 mg/dL
- CARBON DIOXIDE [2]: 27.17 mmol/L
- CHLORIDE [2]: 100.33 MEQ/L
- CHOLESTEROL [2]: 60.67 mg/dL
- CREATINE PHOSPHOKINASE [2]: 441.5 u/L
- CREATININE [2]: 0.16 mg/dL
- LIPASE [2]: 9.17 u/L
- POTASSIUM [2]: 6.86 MEQ/L
- TOTAL BILIRUBIN [2]: 0.2 mg/dL
- TOTAL PROTEIN [2]: 6.12 G/DL
- ABSOLUTE BASOPHIL [3]: 0 CELLS/uL
- ABSOLUTE EOSINOPHIL [3]: 33.67 CELLS/uL
- ABSOLUTE LYMPHOCYTE [3]: 13109.33 CELLS/uL
- ABSOLUTE MONOCYTE [3]: 126 CELLS/uL
- ABSOLUTE SEGMENTED NEUTROPHIL [3]: 1164.33 CELLS/uL
- BASOPHIL [3]: 0%
- EOSINOPHIL [3]: 0.33%
- ERYTHROCYTE COUNT [3]: 5.44 x10E6/uL
- HEMATOCRIT [3]: 33.17%
- LEUKOCYTE COUNT [3]: 14.43 x10E3/uL
- LYMPHOCYTE [3]: 91.33%
- MEAN CORPUSCULAR HEMOGLOBIN [3]: 23.47 pg
- MEAN CORPUSCULAR HEMOGLOBIN CONCENTRATION [3]: 38.53 G/DL
- MEAN CORPUSCULAR VOLUME [3]: 60.97 fL
- MONOCYTE [3]: 0.67%
- NEUTROPHIL [3]: 7.67%
- NUCLEATED RED BLOOD CELLS [3]: 0 /100WBC
- PLATELET COUNT [3]: 1365.67 x10E3/uL
- ALANINE AMINOTRANSFERASE [3]: 53 u/L
- ALBUMIN [3]: 4.3 G/DL
- ALKALINE PHOSPHATASE [3]: 371.67 u/L
- ASPARTATE AMINOTRANSFERASE [3]: 93.67 u/L
- BLOOD UREA NITROGEN [3]: 13.67 mg/dL
- CARBON DIOXIDE [3]: 27.67 mmol/L
- CHLORIDE [3]: 101 MEQ/L
- CHOLESTEROL [3]: 71.33 mg/dL
- CREATINE PHOSPHOKINASE [3]: 286.67 u/L
- CREATININE [3]: 0.17 mg/dL
- LIPASE [3]: 9 u/L
- POTASSIUM [3]: 6.94 MEQ/L
- TOTAL BILIRUBIN [3]: 0.27 mg/dL
- TOTAL PROTEIN [3]: 5.97 G/DL
- ABSOLUTE BASOPHIL [4]: 0 CELLS/uL
- ABSOLUTE EOSINOPHIL [4]: 0 CELLS/uL
- ABSOLUTE LYMPHOCYTE [4]: 17320.33 CELLS/uL
- ABSOLUTE MONOCYTE [4]: 316 CELLS/uL
- ABSOLUTE SEGMENTED NEUTROPHIL [4]: 1397 CELLS/uL
- BASOPHIL [4]: 0%
- EOSINOPHIL [4]: 0%
- ERYTHROCYTE COUNT [4]: 5.46 x10E6/uL
- HEMATOCRIT [4]: 34.3%
- LEUKOCYTE COUNT [4]: 19.03 x10E3/uL
- LYMPHOCYTE [4]: 91%
- MEAN CORPUSCULAR HEMOGLOBIN [4]: 24.7 pg
- MEAN CORPUSCULAR HEMOGLOBIN CONCENTRATION [4]: 39.23 G/DL
- MEAN CORPUSCULAR VOLUME [4]: 62.87 fL
- MONOCYTE [4]: 1.67%
- NEUTROPHIL [4]: 7.33%
